These are literature values, as cited in paper PMC12751000, “Dual Agonist/Antagonist Modulation of α9-Containing Nicotinic Acetylcholine Receptors by 2‑Ammoniumethyl Ethers of Stilbenol and Stilbenol Analogues” (Journal of Medicinal Chemistry, 2025).

Structures are written as SMILES.

In this data set the target is α7[L247T] mutant receptor. More on the design: method as in previous findings, citation number not given. The note with it: chick α7[L247T] mutant; ref: previous findings, citation number not given; cited from earlier work.

Usually EC50 stands for the concentration that produces a half-maximal response. On to `CC[N+](CC)(CC)CCOc1ccc(/C=C/c2ccccc2)cc1` [Compound 1, 2-triethylammonium ethyl ether of 4-stilbenol], for which the EC50 was 0.2 nM.
